Data published in patent US20190054090A1, “COMBINATION OF A BTK INHIBITOR AND A CHECKPOINT INHIBITOR FOR TREATING CANCERS” (Gilead Sciences, Inc., priority 2015, published 2019).

Experiments:
B-cell lymphoma A20 = conditions: previously reported, Sagiv-Barfi et al. PNAS 2015; cited from earlier work
[1] = test system: A20 cell line (ATCC), mouse B-cell lymphoma; assay: in vivo anti-tumor activity in A20 syngeneic tumors; conditions: first study, Compound A1 46 mg/kg/day in diet (0.037%), 4H2 i.p. 20 mg/kg day 0 then 10 mg/kg every 6 days, n=9
Method: This example evaluated in vivo anti-tumor activity of a BTK inhibitor Compound A1 in combination with an anti-PD-1 antibody (4H2), (Kitayama Labes Co., Ltd) in syngeneic tumors.
A20 cell line (ATCC), mouse B-cell lymphoma, were maintained in lymphocyte growth medium (LGM): RPMI-1640 supplemented with 10% FBS, 1% penicillin-streptomycin. Fresh 1% (vol) Monothioglycerol was also added to the culture. The cell suspension of 2×10^6 to 4×10^6 cells per dish was cultured at 37° C., 5% CO2. The cells were suspended in PBS (5×10^7 cells/mL).
A20-bearing BALB/c mice were subcutaneously injected (5×10^6 cells per animal). Day 6 after cell injection (day 0), mice having the tumor volume of about were 200 mm^3 were randomized into four groups (n=9 per group) for treatment with vehicle (CRF-1), Compound A1, 4H2, or Compound A1 and 4H2. Mice were fed diets containing of Compound A1. 4H2 was administered intraperitoneally at 20 mg/kg on day 0 followed by 10 mg/kg every 6 days; the average dose of Compound A1 was 46 mg/kg/day (CRF-1 at 0.037%) in the first and second studies or 15 mg/kg/day (CRF-1 at 0.012%) in the second study. During the studies, tumor volume (long axis of tumor×(short axis of tumor)^2×0.5), tumor growth inhibition rate (TGI, as compared to tumors of the vehicle control group), temporal changes in tumor volume, body weight, or food intake were determined. The studies were terminated when tumors reached a maximum of 3,000 mm^3. […]

[2] = test system: L1210 cell line (JCRB), mouse lymphocytic leukemia; assay: in vivo anti-tumor activity in L1210 syngeneic tumors; conditions: Compound A1 54 mg/kg/day in diet (0.037%), 4H2 i.p. 20 mg/kg day 0 then 10 mg/kg every 6 days, n=8
Method: (§1) This example evaluated in vivo anti-tumor activity of a BTK inhibitor (Compound A1) in combination with an anti-PD-1 antibody (4H2) in syngeneic tumors. Similar protocols as described above were used with L1210 cell line (JCRB), mouse lymphocytic leukemia.
(§2) L1210-bearing DBA-2 mice were subcutaneously injected (5×10^5 cells/animal). Mice were randomized into four groups (n=8 per group) for treatment with vehicle (CRF-1), Compound A1, 4H2 (10 mg/kg every 6 days), or Compound A1 and 4H2. Mice were fed diets containing of Compound A1. 4H2 was administered intraperitoneally at 20 mg/kg on day 0 followed by 10 mg/kg every 6 days. The average dose of Compound A1 was 54 mg/kg/day (CRF-1 at 0.037%).

[3] = body weight of L1210-bearing DBA-2 mice; format: in vivo; conditions: Compound A1 54 mg/kg/day in diet (0.037%), 4H2 i.p. 20 mg/kg day 0 then 10 mg/kg every 6 days, n=8
Method: as §1, §2

[4] = body weight of A20-bearing BALB/c mice; format: in vivo; conditions: first study, Compound A1 46 mg/kg/day in diet (0.037%), 4H2 i.p. 20 mg/kg day 0 then 10 mg/kg every 6 days, n=9
Method: A20-bearing BALB/c mice were subcutaneously injected (5×10^6 cells per animal). Day 6 after cell injection (day 0), mice having the tumor volume of about were 200 mm^3 were randomized into four groups (n=9 per group) for treatment with vehicle (CRF-1), Compound A1, 4H2, or Compound A1 and 4H2. Mice were fed diets containing of Compound A1. 4H2 was administered intraperitoneally at 20 mg/kg on day 0 followed by 10 mg/kg every 6 days; the average dose of Compound A1 was 46 mg/kg/day (CRF-1 at 0.037%) in the first and second studies or 15 mg/kg/day (CRF-1 at 0.012%) in the second study. During the studies, tumor volume (long axis of tumor×(short axis of tumor)^2×0.5), tumor growth inhibition rate (TGI, as compared to tumors of the vehicle control group), temporal changes in tumor volume, body weight, or food intake were determined. The studies were terminated when tumors reached a maximum of 3,000 mm^3.
In the second study, the effects of Compound A1 at 15 mg/kg/day (CRF-1 at 0.012%) and 46 mg/kg/day (CRF-1 at 0.037%) were evaluated. Similar protocols as described above were used. The study (n=12 per group) was terminated at day 17.

SMILES: C=CC(=O)N1CCC[C@@H](n2nc(-c3ccc(Oc4ccccc4)cc3)c3c(N)ncnc32)C1 [ibrutinib, 1-[(3R)-3-[4-Amino-3-(4-phenoxyphenyl)-1H-pyrazolo[3,4-d]pyrimidin-1-yl]piperidin-1-yl]prop-2-en-1-one]
- sensitivity of B-cell lymphoma A20 to the Btk inhibitor (B-cell lymphoma A20): would not be sensitive

SMILES: CC#CC(=O)N1CC[C@@H](n2c(=O)n(-c3ccc(Oc4ccccc4)cc3)c3c(N)ncnc32)C1 [Compound A1, (R)-6-amino-9-(1-(but-2-ynoyl)pyrrolidin-3-yl)-7-(4-phenoxyphenyl)-7H-purin-8(9H)-one]
- average tumor volume (±standard error) ([1]; day 0): 168 (±11) mm^3
- tumor growth inhibition rate (TGI, as compared to tumors of the vehicle control group) ([1]; day 0): 0.8%
- average tumor volume (±standard error) ([1]; day 2): 248 (±18) mm^3
- tumor growth inhibition rate (TGI, as compared to tumors of the vehicle control group) ([1]; day 2): 14%
- average tumor volume (±standard error) ([1]; day 6): 331 (±32) mm^3
- tumor growth inhibition rate (TGI, as compared to tumors of the vehicle control group) ([1]; day 6): 23%
- average tumor volume (±standard error) ([1]; day 9): 632 (±61) mm^3
- tumor growth inhibition rate (TGI, as compared to tumors of the vehicle control group) ([1]; day 9): −12%
- average tumor volume (±standard error) ([1]; day 12): 805 (±104) mm^3
- tumor growth inhibition rate (TGI, as compared to tumors of the vehicle control group) ([1]; day 12): 9%
- average tumor volume (±standard error) ([1]; day 15): 1408 (±157) mm^3
- tumor growth inhibition rate (TGI, as compared to tumors of the vehicle control group) ([1]; day 15): 8%
- average tumor volume (±standard error) ([1]; day 19): 2553 (±272) mm^3
- tumor growth inhibition rate (TGI, as compared to tumors of the vehicle control group) ([1]; day 19): 10%
- average tumor volume (±standard error) ([2]; day 0): 0 (±0) mm^3
- average tumor volume (±standard error) ([2]; day 4): 71 (±16) mm^3
- tumor growth inhibition rate (TGI) ([2]; day 4): 8%
- average tumor volume (±standard error) ([2]; day 7): 247 (±34) mm^3
- tumor growth inhibition rate (TGI) ([2]; day 7): 30%
- average tumor volume (±standard error) ([2]; day 10): 874 (±108) mm^3
- tumor growth inhibition rate (TGI) ([2]; day 10): 7%
- average tumor volume (±standard error) ([2]; day 12): 1851 (±226) mm^3
- tumor growth inhibition rate (TGI) ([2]; day 12): −0.7%
- average tumor volume (±standard error) ([2]; day 14): 3279 (±321) mm^3
- tumor growth inhibition rate (TGI) ([2]; day 14): −0.2%
- average body weight (±standard error) ([3]; day 0): 15 (±0.4) g
- average body weight (±standard error) ([3]; day 4): 16 (±0.4) g
- average body weight (±standard error) ([3]; day 7): 16 (±0.4) g
- average body weight (±standard error) ([3]; day 10): 17 (±0.5) g
- average body weight (±standard error) ([3]; day 12): 18 (±0.4) g
- average body weight (±standard error) ([3]; day 14): 19 (±0.5) g
- average body weight (±standard error) ([4]; day 0): 19 (±0.4) g
- average body weight (±standard error) ([4]; day 2): 19 (±0.4) g
- average body weight (±standard error) ([4]; day 6): 20 (±0.3) g
- average body weight (±standard error) ([4]; day 9): 20 (±0.3) g
- average body weight (±standard error) ([4]; day 12): 21 (±0.3) g
- average body weight (±standard error) ([4]; day 15): 21 (±0.3) g
- average body weight (±standard error) ([4]; day 19): 22 (±0.4) g
